Source: ChEMBL document CHEMBL1201862, “PubChem BioAssay data set” (2004)
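Cultured in 96-well plates, cells were exposed to test compound for 48 hours across five concentrations. The concentration for 50% growth inhibition is given as GI50.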 Calls of active or inactive are those of the source. No stated cut-off is given here; in the data, active = GI50 up to about 1.1 µM and inactive = higher.

Key:
Experiment in all cases: NCI anticancer screen, dose series, 48 h
[1] = tested on: A549
[2] = tested on: HOP-92
[3] = tested on: HCT-116
[4] = tested on: U-251
[5] = tested on: UACC-62
[6] = tested on: ACHN
[7] = tested on: NCI-H226
[8] = tested on: HCT-15
[9] = tested on: MCF7
[10] = tested on: K562
[11] = tested on: SR
[12] = tested on: BT-549
[13] = tested on: HT-29
[14] = tested on: SN12C
[15] = tested on: SF-268
[16] = tested on: HCC 2998
[17] = tested on: RXF 393
[18] = tested on: M14
[19] = tested on: NCI-H522
[20] = tested on: TK-10
[21] = tested on: COLO 205
[22] = tested on: SK-OV-3
[23] = tested on: LOX IMVI
[24] = tested on: HOP-62
[25] = tested on: NCI-H23
[26] = tested on: UO-31
[27] = tested on: T47D
[28] = tested on: SK-MEL-2
[29] = tested on: SW-620
[30] = tested on: RPMI-8226
[31] = tested on: OVCAR-3
[32] = tested on: DU-145
[33] = tested on: KM12
[34] = tested on: SK-MEL-28
[35] = tested on: SF-295
[36] = tested on: NCI/ADR-RES
[37] = tested on: CCRF-CEM
[38] = tested on: CAKI-1
[39] = tested on: SNB-75
[40] = tested on: SF-539
[41] = tested on: A498
[42] = tested on: MDA-MB-435
[43] = tested on: NCI-H460
[44] = tested on: IGROV-1
[45] = tested on: 786-0
[46] = tested on: EKVX
[47] = tested on: MDA-N
[48] = tested on: OVCAR-8
[49] = tested on: OVCAR-5
[50] = tested on: HL-60
[51] = tested on: SK-MEL-5
[52] = tested on: MOLT-4
[53] = tested on: OVCAR-4
[54] = tested on: UACC-257
[55] = tested on: Hs-578T
[56] = tested on: SNB-19
[57] = tested on: PC-3
[58] = tested on: MDA-MB-231
[59] = tested on: Malme-3M

SMILES: CCc1[nH]c(=O)nc(N)c1-c1ccc(N2CCCCC2)c([N+](=O)[O-])c1
- GI50 [1]: > 100 µM (inactive)
- GI50 [2]: > 100 µM (inactive)
- GI50 [3]: > 100 µM (inactive)
- GI50 [4]: > 100 µM (inactive)
- GI50 [5]: > 100 µM (inactive)
- GI50 [6]: > 100 µM (inactive)
- GI50 [7]: > 100 µM (inactive)
- GI50 [8]: > 100 µM
- GI50 [9]: > 100 µM (inactive)
- GI50 [10]: > 100 µM (inactive)
- GI50 [11]: > 100 µM (inactive)
- GI50 [12]: > 100 µM (inactive)
- GI50 [13]: > 100 µM (inactive)
- GI50 [14]: > 100 µM (inactive)
- GI50 [15]: > 100 µM (inactive)
- GI50 [16]: > 100 µM (inactive)
- GI50 [17]: > 100 µM (inactive)
- GI50 [18]: > 100 µM (inactive)
- GI50 [19]: > 100 µM (inactive)
- GI50 [20]: > 100 µM (inactive)
- GI50 [21]: > 100 µM (inactive)
- GI50 [22]: > 100 µM (inactive)
- GI50 [23]: > 100 µM (inactive)
- GI50 [24]: > 100 µM (inactive)
- GI50 [25]: > 100 µM (inactive)
- GI50 [26]: > 100 µM (inactive)
- GI50 [27]: > 100 µM (inactive)
- GI50 [28]: > 100 µM (inactive)
- GI50 [29]: > 100 µM (inactive)
- GI50 [30]: > 100 µM (inactive)
- GI50 [31]: > 100 µM (inactive)
- GI50 [32]: > 100 µM (inactive)
- GI50 [33]: > 100 µM (inactive)
- GI50 [34]: > 100 µM (inactive)
- GI50 [35]: > 100 µM (inactive)
- GI50 [36]: > 100 µM (inactive)
- GI50 [37]: > 100 µM (inactive)
- GI50 [38]: > 100 µM (inactive)
- GI50 [39]: > 100 µM (inactive)
- GI50 [40]: > 100 µM (inactive)
- GI50 [41]: > 100 µM (inactive)
- GI50 [42]: > 100 µM (inactive)
- GI50 [43]: > 100 µM (inactive)
- GI50 [44]: > 100 µM (inactive)
- GI50 [45]: > 100 µM (inactive)
- GI50 [46]: > 100 µM (inactive)
- GI50 [47]: > 100 µM (inactive)
- GI50 [48]: > 100 µM (inactive)
- GI50 [49]: > 100 µM (inactive)
- GI50 [50]: 88.7 µM (inactive)
- GI50 [51]: > 100 µM (inactive)
- GI50 [52]: > 100 µM (inactive)
- GI50 [53]: > 100 µM (inactive)
- GI50 [54]: > 100 µM (inactive)
- GI50 [55]: 53.2 µM (inactive)
- GI50 [56]: > 100 µM (inactive)
- GI50 [57]: > 100 µM (inactive)
- GI50 [58]: 98.4 µM (inactive)

SMILES: O=C(O)CCN1C(=S)CSC1=S
- GI50 [1]: > 100 µM (inactive)
- GI50 [2]: > 100 µM (inactive)
- GI50 [3]: > 100 µM (inactive)
- GI50 [4]: > 100 µM (inactive)
- GI50 [5]: > 100 µM (inactive)
- GI50 [6]: > 100 µM (inactive)
- GI50 [7]: > 100 µM (inactive)
- GI50 [8]: > 100 µM
- GI50 [9]: 67.5 µM (inactive)
- GI50 [10]: 78 µM (inactive)
- GI50 [11]: 39.7 µM (inactive)
- GI50 [12]: > 100 µM (inactive)
- GI50 [13]: > 100 µM (inactive)
- GI50 [14]: > 100 µM (inactive)
- GI50 [15]: > 100 µM (inactive)
- GI50 [17]: > 100 µM (inactive)
- GI50 [18]: > 100 µM (inactive)
- GI50 [19]: 67.8 µM (inactive)
- GI50 [20]: > 100 µM (inactive)
- GI50 [21]: > 100 µM (inactive)
- GI50 [22]: > 100 µM (inactive)
- GI50 [23]: 94.4 µM (inactive)
- GI50 [24]: > 100 µM (inactive)
- GI50 [25]: > 100 µM (inactive)
- GI50 [27]: > 100 µM (inactive)
- GI50 [28]: > 100 µM (inactive)
- GI50 [29]: > 100 µM (inactive)
- GI50 [30]: 54.7 µM (inactive)
- GI50 [31]: > 100 µM (inactive)
- GI50 [32]: > 100 µM (inactive)
- GI50 [33]: > 100 µM (inactive)
- GI50 [34]: > 100 µM (inactive)
- GI50 [35]: > 100 µM (inactive)
- GI50 [36]: > 100 µM (inactive)
- GI50 [37]: 44.2 µM (inactive)
- GI50 [38]: > 100 µM (inactive)
- GI50 [39]: > 100 µM (inactive)
- GI50 [40]: > 100 µM (inactive)
- GI50 [41]: > 100 µM (inactive)
- GI50 [42]: > 100 µM (inactive)
- GI50 [43]: 88.1 µM (inactive)
- GI50 [44]: > 100 µM (inactive)
- GI50 [45]: > 100 µM (inactive)
- GI50 [46]: > 100 µM (inactive)
- GI50 [47]: > 100 µM (inactive)
- GI50 [48]: > 100 µM (inactive)
- GI50 [49]: > 100 µM (inactive)
- GI50 [51]: > 100 µM (inactive)
- GI50 [52]: 42 µM (inactive)
- GI50 [53]: > 100 µM (inactive)
- GI50 [54]: > 100 µM (inactive)
- GI50 [55]: > 100 µM (inactive)
- GI50 [59]: > 100 µM (inactive)
- GI50 [56]: > 100 µM (inactive)
- GI50 [57]: > 100 µM (inactive)
- GI50 [58]: > 100 µM (inactive)

SMILES: CN(C)Cc1cc(C(=O)O)cc(CN(C)C)c1O
- GI50 [1]: > 100 µM (inactive)
- GI50 [2]: > 100 µM (inactive)
- GI50 [3]: > 100 µM (inactive)
- GI50 [4]: > 100 µM (inactive)
- GI50 [5]: > 100 µM (inactive)
- GI50 [6]: > 100 µM (inactive)
- GI50 [7]: > 100 µM (inactive)
- GI50 [8]: > 100 µM
- GI50 [9]: > 100 µM (inactive)
- GI50 [10]: > 100 µM (inactive)
- GI50 [11]: > 100 µM (inactive)
- GI50 [12]: > 100 µM (inactive)
- GI50 [13]: > 100 µM (inactive)
- GI50 [14]: > 100 µM (inactive)
- GI50 [15]: > 100 µM (inactive)
- GI50 [16]: > 100 µM (inactive)
- GI50 [17]: > 100 µM (inactive)
- GI50 [18]: > 100 µM (inactive)
- GI50 [19]: > 100 µM (inactive)
- GI50 [20]: > 100 µM (inactive)
- GI50 [21]: > 100 µM (inactive)
- GI50 [22]: > 100 µM (inactive)
- GI50 [23]: > 100 µM (inactive)
- GI50 [24]: > 100 µM (inactive)
- GI50 [25]: > 100 µM (inactive)
- GI50 [26]: > 100 µM (inactive)
- GI50 [27]: > 100 µM (inactive)
- GI50 [28]: > 100 µM (inactive)
- GI50 [29]: > 100 µM (inactive)
- GI50 [30]: > 100 µM (inactive)
- GI50 [31]: > 100 µM (inactive)
- GI50 [32]: > 100 µM (inactive)
- GI50 [33]: > 100 µM (inactive)
- GI50 [34]: > 100 µM (inactive)
- GI50 [35]: > 100 µM (inactive)
- GI50 [36]: > 100 µM (inactive)
- GI50 [37]: > 100 µM (inactive)
- GI50 [38]: > 100 µM (inactive)
- GI50 [39]: > 100 µM (inactive)
- GI50 [41]: > 100 µM (inactive)
- GI50 [42]: > 100 µM (inactive)
- GI50 [43]: > 100 µM (inactive)
- GI50 [44]: > 100 µM (inactive)
- GI50 [45]: > 100 µM (inactive)
- GI50 [46]: > 100 µM (inactive)
- GI50 [47]: > 100 µM (inactive)
- GI50 [48]: > 100 µM (inactive)
- GI50 [49]: > 100 µM (inactive)
- GI50 [50]: > 100 µM (inactive)
- GI50 [51]: > 100 µM (inactive)
- GI50 [53]: > 100 µM (inactive)
- GI50 [54]: > 100 µM (inactive)
- GI50 [55]: > 100 µM (inactive)
- GI50 [59]: > 100 µM (inactive)
- GI50 [56]: > 100 µM (inactive)
- GI50 [57]: > 100 µM (inactive)
- GI50 [58]: > 100 µM (inactive)
